Test results published in patent US12351574B2, “Selective ligands for modulation of GIRK channels” (Northeastern University, priority 2018, dated 2025).

Columns and labels:
open-field (OF) test = format: in vivo, rat
Source text: Open-field (OF) test: The OF apparatus is a plexiglass open-topped chamber (91.5×91.5×30.5 cm), filmed by a ceiling-mounted CCD camera and illuminated by a 25 W red light bulb placed 2 meters above the center of the chamber. […] The automated tracking system ANY-MAZE (ANY-MAZE, Stoelting Co., Wood Dale, IL, USA) was utilized to measure total distance traveled and mean speed.

GIRK1-S65A with GIRK4 = target: T1, GIRK1-S65A with GIRK4 (Homo sapiens, UniProt P48544+P48549, S65A); experiment: 5-ptaseOCRL current inhibition, GIRK1/4 channels containing GIRK1-S65A subunits; format: cell-based
T1 construct: expressed in transfected cells; host or cells: HEK293-T cells
T1 sequence (P48549 1-501 S65A): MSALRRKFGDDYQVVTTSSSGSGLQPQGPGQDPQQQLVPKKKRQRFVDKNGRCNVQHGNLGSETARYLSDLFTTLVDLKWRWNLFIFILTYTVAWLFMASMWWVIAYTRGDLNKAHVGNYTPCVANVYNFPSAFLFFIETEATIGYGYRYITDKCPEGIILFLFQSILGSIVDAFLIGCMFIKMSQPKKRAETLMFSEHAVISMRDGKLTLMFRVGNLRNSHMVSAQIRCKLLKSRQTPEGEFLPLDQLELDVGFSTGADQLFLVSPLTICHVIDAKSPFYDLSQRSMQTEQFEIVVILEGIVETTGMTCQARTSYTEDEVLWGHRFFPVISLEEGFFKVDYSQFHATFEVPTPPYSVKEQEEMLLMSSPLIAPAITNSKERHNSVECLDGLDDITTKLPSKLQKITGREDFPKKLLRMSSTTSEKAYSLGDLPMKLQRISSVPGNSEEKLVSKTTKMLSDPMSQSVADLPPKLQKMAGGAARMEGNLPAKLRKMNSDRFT
T1 sequence (P48544 1-419): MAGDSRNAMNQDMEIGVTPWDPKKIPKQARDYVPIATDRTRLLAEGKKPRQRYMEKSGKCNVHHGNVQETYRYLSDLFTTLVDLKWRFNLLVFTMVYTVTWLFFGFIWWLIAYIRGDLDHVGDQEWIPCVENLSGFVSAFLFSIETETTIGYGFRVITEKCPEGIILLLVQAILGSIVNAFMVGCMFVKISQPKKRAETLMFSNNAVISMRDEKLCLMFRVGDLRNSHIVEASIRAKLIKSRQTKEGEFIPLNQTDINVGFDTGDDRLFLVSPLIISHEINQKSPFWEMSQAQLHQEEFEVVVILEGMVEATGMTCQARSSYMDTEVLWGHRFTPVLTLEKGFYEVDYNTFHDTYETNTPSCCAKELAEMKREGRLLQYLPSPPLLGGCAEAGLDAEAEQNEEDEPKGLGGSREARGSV
Source text: To identify changes in specific channel residue interactions with PIP2 upon ligand binding, the inventors carried out Principal Component Analysis (PCA) in the presence and absence of ML297 and GAT1508. The PCA analysis implicated changes in the slide (or interfacial) helix interactions with PIP2 upon ligand binding. Polar interactions could be formed between GIRK2^FD(Y76) and GIRK4^FD(Y71) with the P(4,5) of PIP2 when ML297 was bound to the same subunit (FIG. 39 top, FIG. 40). In contrast, when GAT1508 was bound this interaction was retained by GIRK2^FD but not GIRK4^FD (FIG. 39 bottom, FIG. 40). The corresponding GIRK1(S65) residue (FIG. 41, highlighted with vertical rectangle) could be serving the same role in stabilizing the phosphoinositol headgroup for interactions with non-ligand binding subunits. As polar residues, both Ser and Tyr could form H-bond interactions with PIP2. […]
Patch-clamp recording: Whole-cell currents were recorded with an Axopatch 200B amplifier (Molecular Devices) controlled via a USB-interface (National Instruments) using WinWCP software (University of Strathclyde). […] The barium-sensitive component of the current, observed when cells were perfused with the high-K^+ buffer, was analyzed and was determined by perfusing 5 mM BaCl2 in the high-K^+ buffer at the end of each experiment. […]

[1] = 30 and 60 mg/kg, 30 min after treatment

| mean speed in the OF test (in words) (open-field (OF) test; 10 and 30 mg/kg i.p.) | total distance travelled in the OF test (in words) (open-field (OF) test; 10 and 30 mg/kg i.p.) | protection of current from 5-ptaseOCRL (in words) (GIRK1-S65A with GIRK4) | mean speed in the open arena (in words) (open-field (OF) test; [1]) | total distance traveled in the open arena (in words) (open-field (OF) test; [1]) | SMILES |
| --- | --- | --- | --- | --- | --- |
| comparable to the vehicle group | comparable to the vehicle group | not protected |  |  | Cc1cc(NC(=O)Nc2ccc(Br)s2)n(-c2ccccc2)n1 [GAT1508, 1-(5-bromothiophen-2-yl)-3-(3-methyl-1-phenyl-1H-pyrazol-5-yl)urea] |
|  |  | not protected | comparable to the vehicle group | comparable to the vehicle group | Cc1cc(NC(=O)Nc2ccc(F)c(F)c2)n(-c2ccccc2)n1 [ML297, reference compound] |
